# Experiments:
# [1] = system: polymorphonuclear neutrophil (PMN); assay: PMN adherence on nylon fiber column; format: cell-based, human; conditions: for percent adherence of PMN on the nylon column: three conditions: M199 "control", IL-1 80U/ml, "LPS KINE"
# Method: (§1) Purified human IL-1 was obtained from Cistron Technology, Pinebrook, New Jersey. As is known, the production of IL-1 from macrophages or circulating monocytes can be stimulated by the presence of bacterial lipopolysaccharides. Stites et al, Basic and Clinical Immunology, page 87 (1984). Accordingly, in vitro-generated IL-1 was obtained through the incubation of mononuclear leukocytes. Mononuclear leukocytes (3 x 10^6/ml) from ficoll-hypaque separation were incubated in medium 199 (M199) containing 10% fresh autologous serum with or without lipopolysaccharides 5ng/ml or with or without supernatant from C. albicans culture for 18 hours at 37° C (10% CO2) in LAB-TEK Flaskettes (Miles Inc., Naperville, Illinois). The suspension was centrifuged (150g X 10 minutes) and the supernatant filtered (0.45 micron 4) and frozen (-70° C).
# Purified PMN (5 x 10^6/ml) were incubated 30 minutes at 37°C in M199, "NONE", LPS (1ng/ml), "LPS", mononuclear leukocyte conditioned medium, "CONT KINES", or in LPS stimulated mononuclear leukocyte conditioned medium, "LPS KINES". One ml was pipetted onto the top of a nylon fiber column and incubated at 37°C for 30 minutes. The PMN in the effluent samples were counted and the percent adherence of PMN on the column determined.
# Two tenths ml of purified PMN (1 x 10^7/ml) was incubated 30 minutes at 37°C in M199, "control", or M199 containing IL-1 (80U/ml), "IL-1", or in LPS stimulated mononuclear leukocyte conditioned medium, "LPS KINE", with or without pentoxifylline (0.1 or 50 micrograms/ml).
# Following incubation the samples were diluted to a final concentration of 5 x 10^6/ml with M199 (2% serum). One ml was placed onto the top of a nylon fiber column and incubated at 37°C for 30 minutes. The PMN in the effluent samples were counted and the percent adherence of PMN on the nylon column calculated.
# [2] = system: polymorphonuclear neutrophil (PMN); assay: PMN chemotaxis (directed migration) under agarose, chemoattractant FMLP; format: cell-based, human; conditions: for directed migration inhibited by "LPS KINE": LPS stimulated mononuclear leukocyte conditioned M199 2% serum; for directed migration inhibited by interleukin-1: MEM containing IL-1 at 0 to 80 Units/ml
# Method: as §1
# Neutrophils were placed in the center well of a triplet and the chemoattractant (FMLP 10^-7M) was placed in one outer well and M199 was placed in the opposite well. Following 2 hours incubation at 37° C the plates were fixed and stained and the zones of migration measured. The directed migration was the distance in mm that the leading front of PMN moved towards the chemoattractant.
# (§2) Pure PMN (5 x 10^6/ml) were incubated for 30 minutes at 37°C with or without pentoxifylline (0.1 or 50 micrograms/ml) in M199 2% serum, "NO ADD", M199 2% serum containing LPS (1ng/ml), "LPS", mononuclear leukocyte conditioned M199 2% serum, "CONT KINE", or LPS stimulated mononuclear leukocyte conditioned M199 2% serum, "LPS KINE". The PMN were concentrated 10 fold prior to application in the under agarose chemotaxis assay.
# as §2, with “5%” for “2%”, “supernatant from C. albicans culture, "C.ALB",” for “LPS (1ng/ml), "LPS",”, “C. albicans” for “LPS”, “"C. ALB” for “"LPS”
# Pure PMN (5 x 10^6/ml) were incubated for 30 minutes at 37°C with or without pentoxifylline (0.1 or 50 micrograms/ml) in minimum essential medium (MEM) or MEM containing IL-1 at 0 to 80 Units/ml. The PMN were concentrated 10 fold prior to application inthe under agarose chemotaxis assay.
# [3] = pentoxifylline 0.1 micrograms/ml
# [4] = pentoxifylline 50 micrograms/ml
smiles,measurement,setting,value
"CC(=O)CCCCn1c(=O)c2c(ncn2C)n(C)c1=O [Pentoxifylline, pentoxifylline]",percent adherence of PMN on the nylon column,[1]; [3],decreased
same,percent adherence of PMN on the column,"[1]; pentoxifylline 50 micrograms/ml, all four conditions: M199 ""NONE"", LPS 1ng/ml, ""CONT KINES"", ""LPS KINES"", 30 minutes at 37°C",decreased
same,percent adherence of PMN on the nylon column,[1]; [4],decreased
same,"directed migration inhibited by ""LPS KINE""",[2]; [3],increased
same,directed migration inhibited by interleukin-1,[2]; [3],increased
same,"directed migration inhibited by ""C.ALB KINE""","[2]; pentoxifylline 50 micrograms/ml, C. albicans stimulated mononuclear leukocyte conditioned M199 5% serum",increased
same,"directed migration inhibited by ""LPS KINE""",[2]; [4],increased
same,directed migration inhibited by interleukin-1,[2]; [4],increased
same,"directed migration inhibited by ""CONT KINE""","[2]; pentoxifylline 50 micrograms/ml, mononuclear leukocyte conditioned M199 5% serum",increased
